From patent US12257264B2, “Combination therapy for HIV with adenosine derivative and capsid inhibitors” (Brii Biosciences, Inc., priority 2021, dated 2025)
Values joined by “and” are separate entries in the source; they are usually repeats but may differ in a detail not shown here. Equal values may be shown once.

Experiment: Plasma exposures following IV infusion alone or in combination to Sprague-Dawley rats
Settings: for Lenacapavir Concentrations in Rat Plasma When Dosed with Prodrug formula 4-A: Lenacapavir IV infusion 1.0 mg/kg with Prodrug formula 4-A
Experimental: The pharmacokinetics of EFdA and prodrug formula 4-A, as well as lenacapavir were studied in rats after IV infusion administration alone or in combination at a dose of 1.0 mg/kg each.
Formulations: The prodrugs and lenacapavir were formulated alone or in combination as solutions at 1.0 mg/mL each in 20% […], 10% Solutol aqueous solution within 0.5 hour prior to dose.
Dose Administration and Sample Collection: The in-life phase of this study was conducted at the WuXi Apptec (WuXi) at Shanghai, China in accordance with the WuXi Institutional Animal Care and Use Committee (IACUC) standard animal procedures along with the IACUC guidelines that are in compliance with the Animal Welfare Act, the Guide for the Care and Use of Laboratory Animals. and was approved by the IACUA Committee. Male Sprague-Dawley rats (0.262+/−0.019 kg) were used for the studies. Each drug was administered as a single dose by 30-min IV infusion (1 ml/kg) alone or in combination. Plasma samples were collected at 0 (pre-dose), 5, 10, 15 and 30 min, 1, 2, 4, 7, 12 and 24 h post-dose. Blood (approximately 0.1 mL) was processed immediately for plasma by centrifugation at 3,200 g at 4° C. for 10 min within half an hour of collection. Plasma samples were frozen and maintained at −70° C. until analyzed. To stabilize the prodrug at the sample collection and subsequent analysis, the following stabilizing reagents were added to the blood collection K2EDTA tubes on wet ice prior to sample collection: for each 100 mL of blood, 10 mL of premade inhibitor cocktail consists of 600 mM Citric Acid, 400 mM PMSF, 400 mM NaF, and 400 mM Dichlorvos.
Determination of EFdA and Prodrugs in plasma: Briefly, plasma (20 μL) was mixed with 100 l acetonitrile to precipitate protein. Consistent with sample collection procedure, the same cocktail protocol was also added to stabilize the prodrug in the standard and QC samples.
Bioanalysis: A Sciex API-6500 Plus triplequadrupole mass spectrometer coupled with a Waters Acquity UPLC system (Framingham, MA 01701) was used for quantitative analysis of plasma samples. The column was a Waters HSS T3 column (2.1×50 mm, 1.8 micrometer). The mobile phases used were: A, 0.1% formic acid in water; B, 0.1% formic acid in acetonitrile. For the analysis of EFdA and prodrugs in plasma, the flow rate was 0.6 mL/min with a total run time of 2.0 min. […] Detection of the prodrug and EFdA were achieved using positive ion electrospray mass spectroscopic mode using unit resolution mode. Multiple reaction monitoring (MRM) modes were used to quantify both prodrug and EFdA, e.g. the MRM transition for EFdA was 294.0-154.2 Da, and the transition for prodrug 4-A was 449.3-164.9 Da. For the analysis of lenacapavir in plasma, the flow rate was 0.7 mL/min with a total run time of 1.5 min. The HPLC gradient was initiated at 95% A/5% B for 0.50 min, followed by linear gradient increase to […] over the next 0.2 min; the gradient was subsequently maintained at 100% of mobile B over the next 0.7 min before ramping down to 95% mobile phase A within the following 0.1 min. Detection of lenacapavir was achieved using positive ion electrospray mass spectroscopic mode using unit resolution mode. Multiple reaction monitoring (MRM) modes were used to quantify lenacapavir, e.g. the MRM transition for lenacapavir was 968.1-869.4 Da. Peak areas were integrated by the Sciex program Analyst®, version 1.6.3, operating on a Windows 7 computer where concentrations were determined by a weighted (1/x2) linear regression of peak area ratios (peak area of EFdA/peak area of corresponding IS) versus the nominal concentrations of the plasma calibration standards. Calculations were performed on unrounded numbers. Overall, Analyst® determined the precision and accuracy for the calibration standards and QC samples.

## CC(C)(C#Cc1ccc(-c2ccc(Cl)c3c(NS(C)(=O)=O)nn(CC(F)(F)F)c23)c([C@H](Cc2cc(F)cc(F)c2)NC(=O)Cn2nc(C(F)(F)F)c3c2C(F)(F)[C@@H]2C[C@H]32)n1)S(C)(=O)=O [Lenacapavir, reference compound]
Lenacapavir IV infusion 1.0 mg/kg alone, 0.0830 hrs, individual animals
  Lenacapavir Concentrations in Rat Plasma When Dosed Alone: 485 ng/mL and 603 ng/mL and 667 ng/mL
Lenacapavir IV infusion 1.0 mg/kg alone, 0.167 hrs, individual animals
  Lenacapavir Concentrations in Rat Plasma When Dosed Alone: 845 ng/mL and 682 ng/mL and 734 ng/mL
Lenacapavir IV infusion 1.0 mg/kg alone, 0.250 hrs, individual animals
  Lenacapavir Concentrations in Rat Plasma When Dosed Alone: 810 ng/mL and 801 ng/mL and 894 ng/mL
Lenacapavir IV infusion 1.0 mg/kg alone, 0.500 hrs, individual animals
  Lenacapavir Concentrations in Rat Plasma When Dosed Alone: 612 ng/mL and 580 ng/mL and 984 ng/mL
Lenacapavir IV infusion 1.0 mg/kg alone, 1.00 hrs, individual animals
  Lenacapavir Concentrations in Rat Plasma When Dosed Alone: 166 ng/mL and 222 ng/mL and 240 ng/mL
Lenacapavir IV infusion 1.0 mg/kg alone, 2.00 hrs, individual animals
  Lenacapavir Concentrations in Rat Plasma When Dosed Alone: 104 ng/mL and 149 ng/mL and 164 ng/mL
Lenacapavir IV infusion 1.0 mg/kg alone, 4.00 hrs, individual animals
  Lenacapavir Concentrations in Rat Plasma When Dosed Alone: 102 ng/mL and 157 ng/mL and 195 ng/mL
Lenacapavir IV infusion 1.0 mg/kg alone, 7.00 hrs, individual animals
  Lenacapavir Concentrations in Rat Plasma When Dosed Alone: 185 ng/mL and 84.6 ng/mL and 141 ng/mL and 142 ng/mL
Lenacapavir IV infusion 1.0 mg/kg alone, 12.0 hrs, individual animals
  Lenacapavir Concentrations in Rat Plasma When Dosed Alone: 79.4 ng/mL and 106 ng/mL and 139 ng/mL
Lenacapavir IV infusion 1.0 mg/kg alone, 24.0 hrs, individual animals
  Lenacapavir Concentrations in Rat Plasma When Dosed Alone: 123 ng/mL and 141 ng/mL and 139 ng/mL
Lenacapavir IV infusion 1.0 mg/kg alone, 72.0 hrs, individual animals
  Lenacapavir Concentrations in Rat Plasma When Dosed Alone: 51.3 ng/mL and 59.7 ng/mL and 57.2 ng/mL and 110 ng/mL
0.0830 hrs, individual animals
  Lenacapavir Concentrations in Rat Plasma When Dosed with Prodrug formula 4-A: 460 ng/mL and 391 ng/mL and 314 ng/mL
0.167 hrs, individual animals
  Lenacapavir Concentrations in Rat Plasma When Dosed with Prodrug formula 4-A: 479 ng/mL and 589 ng/mL and 415 ng/mL
0.250 hrs, individual animals
  Lenacapavir Concentrations in Rat Plasma When Dosed with Prodrug formula 4-A: 623 ng/mL and 664 ng/mL and 375 ng/mL
0.500 hrs, individual animals
  Lenacapavir Concentrations in Rat Plasma When Dosed with Prodrug formula 4-A: 643 ng/mL and 714 ng/mL and 448 ng/mL
1.00 hrs, individual animals
  Lenacapavir Concentrations in Rat Plasma When Dosed with Prodrug formula 4-A: 170 ng/mL (2×) and 107 ng/mL
2.00 hrs, individual animals
  Lenacapavir Concentrations in Rat Plasma When Dosed with Prodrug formula 4-A: 135 ng/mL and 105 ng/mL and 94.7 ng/mL
4.00 hrs, individual animals
  Lenacapavir Concentrations in Rat Plasma When Dosed with Prodrug formula 4-A: 93.1 ng/mL and 101 ng/mL and 80.9 ng/mL
7.00 hrs, individual animals
  Lenacapavir Concentrations in Rat Plasma When Dosed with Prodrug formula 4-A: 140 ng/mL and 101 ng/mL and 72.3 ng/mL and 58.8 ng/mL
12.0 hrs, individual animals
  Lenacapavir Concentrations in Rat Plasma When Dosed with Prodrug formula 4-A: 139 ng/mL and 137 ng/mL and 158 ng/mL and 78.6 ng/mL
24.0 hrs, individual animals
  Lenacapavir Concentrations in Rat Plasma When Dosed with Prodrug formula 4-A: 129 ng/mL and 164 ng/mL and 176 ng/mL and 62.5 ng/mL
72.0 hrs, individual animals
  Lenacapavir Concentrations in Rat Plasma When Dosed with Prodrug formula 4-A: 40.1 ng/mL and 97.8 ng/mL and 97.2 ng/mL and 98.0 ng/mL
male, Sprague-Dawley, rat, in vivo, 1 mg/kg, Lenacapavir Concentrations in Rat Plasma When Dosed Alone
  concentration at 48 h: 107 ng/mL
male, Sprague-Dawley, rat, in vivo, 1 mg/kg, Lenacapavir Concentrations in Rat Plasma When Dosed Alone, Lenacapavir IV infusion 1.0 mg/kg alone, 0.0830 hrs, Mean
  concentration at 0.083 h: 612 ng/mL
male, Sprague-Dawley, rat, in vivo, 1 mg/kg, Lenacapavir Concentrations in Rat Plasma When Dosed Alone, Lenacapavir IV infusion 1.0 mg/kg alone, 0.0830 hrs, individual animals
  concentration at 0.083 h: 692 ng/mL
male, Sprague-Dawley, rat, in vivo, 1 mg/kg, Lenacapavir Concentrations in Rat Plasma When Dosed Alone, Lenacapavir IV infusion 1.0 mg/kg alone, 0.167 hrs, Mean
  concentration at 0.167 h: 739 ng/mL
male, Sprague-Dawley, rat, in vivo, 1 mg/kg, Lenacapavir Concentrations in Rat Plasma When Dosed Alone, Lenacapavir IV infusion 1.0 mg/kg alone, 0.167 hrs, individual animals
  concentration at 0.167 h: 694 ng/mL
male, Sprague-Dawley, rat, in vivo, 1 mg/kg, Lenacapavir Concentrations in Rat Plasma When Dosed Alone, Lenacapavir IV infusion 1.0 mg/kg alone, 0.250 hrs, Mean
  concentration at 0.25 h: 825 ng/mL
